Laboratory results published in ChEMBL document CHEMBL1201862, “PubChem BioAssay data set” (2004).
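Cells were grown in 96-well plates and exposed to each compound for 48 hours at five concentrations; endpoints were interpolated linearly between bracketing concentrations, or set to the highest concentration if not reached. The concentration for 50% growth inhibition is given as GI50.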 Calls of active or inactive are those of the source. Rule as the data show it: active = GI50 up to about 1.1 µM and inactive = higher.

Tests used:
Assay in all cases: NCI anticancer screen, dose series, 48 h
[1] = tested on: OVCAR-5
[2] = tested on: SW-620
[3] = tested on: KM12
[4] = tested on: SK-MEL-5
[5] = tested on: MDA-N
[6] = tested on: OVCAR-4
[7] = tested on: Hs-578T
[8] = tested on: CCRF-CEM
[9] = tested on: NCI-H226
[10] = tested on: HCC 2998
[11] = tested on: PC-3
[12] = tested on: HL-60
[13] = tested on: MDA-MB-435
[14] = tested on: 786-0
[15] = tested on: SK-MEL-2
[16] = tested on: HOP-62
[17] = tested on: OVCAR-8
[18] = tested on: SF-539
[19] = tested on: M14
[20] = tested on: MDA-MB-231

O=C(O)c1nn(-c2ccccc2-c2nnc(O)nc2O)c(=O)[nH]c1=O
GI50 [1]: > 100 µM (inactive) | GI50 [2]: > 100 µM (inactive) | GI50 [3]: > 100 µM (inactive) | GI50 [4]: > 100 µM (inactive) | GI50 [5]: > 100 µM (inactive) | GI50 [6]: > 100 µM (inactive) | GI50 [7]: > 100 µM (inactive) | GI50 [8]: 51.8 µM (inactive) | GI50 [9]: > 100 µM (inactive) | GI50 [10]: > 100 µM (inactive) | GI50 [11]: > 100 µM (inactive) | GI50 [12]: 30.5 µM (inactive) | GI50 [13]: > 100 µM (inactive) | GI50 [14]: > 100 µM (inactive) | GI50 [15]: > 100 µM (inactive) | GI50 [16]: > 100 µM (inactive) | GI50 [17]: > 100 µM (inactive) | GI50 [18]: > 100 µM (inactive) | GI50 [19]: > 100 µM (inactive) | GI50 [20]: > 100 µM (inactive)

CO/C(N)=C(C#N)/N=C/c1cccs1
GI50 [1]: > 100 µM (inactive) | GI50 [2]: 68.1 µM (inactive) | GI50 [3]: > 100 µM (inactive) | GI50 [4]: 39.4 µM (inactive) | GI50 [5]: 27.4 µM (inactive) | GI50 [6]: > 100 µM (inactive) | GI50 [7]: 66.2 µM (inactive) | GI50 [8]: 66.4 µM (inactive) | GI50 [9]: > 100 µM (inactive) | GI50 [10]: > 100 µM (inactive) | GI50 [11]: > 100 µM (inactive) | GI50 [12]: 22 µM (inactive) | GI50 [13]: 25.8 µM (inactive) | GI50 [14]: > 100 µM (inactive) | GI50 [15]: > 100 µM (inactive) | GI50 [16]: 98.4 µM (inactive) | GI50 [17]: > 100 µM (inactive) | GI50 [18]: 92.7 µM (inactive) | GI50 [19]: 41.2 µM (inactive) | GI50 [20]: > 100 µM (inactive)

CCN(CC)CCOc1ccc(N2C(=O)c3cc(OC)c(OC)cc3C2=O)cc1
GI50 [1]: > 100 µM (inactive) | GI50 [2]: > 100 µM (inactive) | GI50 [3]: > 100 µM (inactive) | GI50 [4]: > 100 µM (inactive) | GI50 [5]: > 100 µM (inactive) | GI50 [6]: > 100 µM (inactive) | GI50 [7]: > 100 µM (inactive) | GI50 [8]: > 100 µM (inactive) | GI50 [9]: > 100 µM (inactive) | GI50 [10]: > 100 µM (inactive) | GI50 [11]: > 100 µM (inactive) | GI50 [12]: > 100 µM (inactive) | GI50 [13]: > 100 µM (inactive) | GI50 [14]: > 100 µM (inactive) | GI50 [15]: > 100 µM (inactive) | GI50 [16]: > 100 µM (inactive) | GI50 [17]: > 100 µM (inactive) | GI50 [18]: > 100 µM (inactive) | GI50 [19]: > 100 µM (inactive) | GI50 [20]: > 100 µM (inactive)

Nc1nc(Sc2ccc([N+](=O)[O-])c3nonc23)c2nc[nH]c2n1
GI50 [1]: 1.02 µM (active) | GI50 [2]: 1.01 µM (active) | GI50 [3]: 3.21 µM (inactive) | GI50 [4]: 2.15 µM (inactive) | GI50 [5]: 0.91 µM (active) | GI50 [6]: 1.14 µM (inactive) | GI50 [7]: 6.58 µM (inactive) | GI50 [8]: 0.191 µM (active) | GI50 [9]: 1.75 µM (inactive) | GI50 [10]: 1.08 µM (active) | GI50 [11]: 3.34 µM (inactive) | GI50 [12]: 1.71 µM (inactive) | GI50 [13]: 0.59 µM (active) | GI50 [14]: 0.489 µM (active) | GI50 [15]: 1.06 µM (active) | GI50 [16]: 0.561 µM (active) | GI50 [17]: 0.721 µM (active) | GI50 [18]: 1.53 µM (inactive) | GI50 [19]: 0.363 µM (active) | GI50 [20]: 0.731 µM (active)

COC(=O)C1=C(C)NC(C)=C(C(=O)OC)C1c1ccc(N=O)cc1
GI50 [1]: 17.5 µM (inactive) | GI50 [2]: 3.61 µM (inactive) | GI50 [3]: 18.5 µM (inactive) | GI50 [4]: 16.6 µM (inactive) | GI50 [5]: 6.75 µM (inactive) | GI50 [6]: 3.14 µM (inactive) | GI50 [7]: 7.31 µM (inactive) | GI50 [8]: 0.897 µM (active) | GI50 [9]: 16 µM (inactive) | GI50 [10]: 16.9 µM (inactive) | GI50 [11]: 15.8 µM (inactive) | GI50 [12]: 1.3 µM (inactive) | GI50 [13]: 16.2 µM (inactive) | GI50 [14]: 14.6 µM (inactive) | GI50 [15]: 13.7 µM (inactive) | GI50 [16]: 23.8 µM (inactive) | GI50 [17]: 8.45 µM (inactive) | GI50 [18]: 17.7 µM (inactive) | GI50 [19]: 11.2 µM (inactive) | GI50 [20]: 11.4 µM (inactive)

CN(C)c1nc(NC23CC4CC(CC(C4)C2)C3)nc(N(C)C)n1
GI50 [1]: 10.2 µM (inactive) | GI50 [2]: 12.3 µM (inactive) | GI50 [3]: 5.66 µM (inactive) | GI50 [4]: 11.1 µM (inactive) | GI50 [5]: 8.67 µM (inactive) | GI50 [6]: > 100 µM (inactive) | GI50 [7]: 16.3 µM (inactive) | GI50 [8]: 5.06 µM (inactive) | GI50 [9]: 20.4 µM (inactive) | GI50 [10]: > 27.5 µM (inactive) | GI50 [11]: 8.32 µM (inactive) | GI50 [12]: 3.61 µM (inactive) | GI50 [13]: 21.4 µM (inactive) | GI50 [14]: 15.7 µM (inactive) | GI50 [15]: 20.1 µM (inactive) | GI50 [16]: 15.7 µM (inactive) | GI50 [17]: > 53.3 µM (inactive) | GI50 [18]: 21.8 µM (inactive) | GI50 [19]: 13.1 µM (inactive) | GI50 [20]: 9.98 µM (inactive)

CC(C)n1c2c(c3ccccc3c1=O)C(=O)c1ccccc1-2
GI50 [1]: > 100 µM (inactive) | GI50 [2]: > 100 µM (inactive) | GI50 [3]: > 100 µM (inactive) | GI50 [4]: > 100 µM (inactive) | GI50 [5]: > 100 µM (inactive) | GI50 [6]: 50.5 µM (inactive) | GI50 [7]: > 100 µM (inactive) | GI50 [8]: > 100 µM (inactive) | GI50 [9]: > 100 µM (inactive) | GI50 [10]: > 100 µM (inactive) | GI50 [11]: > 100 µM (inactive) | GI50 [12]: > 100 µM (inactive) | GI50 [13]: > 100 µM (inactive) | GI50 [14]: > 100 µM (inactive) | GI50 [15]: > 100 µM (inactive) | GI50 [16]: > 100 µM (inactive) | GI50 [17]: > 100 µM (inactive) | GI50 [18]: > 100 µM (inactive) | GI50 [19]: > 100 µM (inactive) | GI50 [20]: > 100 µM (inactive)

CC(=O)CCCCn1c(=O)c2c(nc(Br)n2C)n(C)c1=O
GI50 [1]: > 100 µM (inactive) | GI50 [2]: > 100 µM (inactive) | GI50 [3]: > 100 µM (inactive) | GI50 [4]: > 100 µM (inactive) | GI50 [5]: > 100 µM (inactive) | GI50 [6]: > 100 µM (inactive) | GI50 [7]: > 100 µM (inactive) | GI50 [8]: > 100 µM (inactive) | GI50 [9]: > 100 µM (inactive) | GI50 [10]: 95.3 µM (inactive) | GI50 [11]: > 100 µM (inactive) | GI50 [12]: > 100 µM (inactive) | GI50 [13]: > 100 µM (inactive) | GI50 [14]: > 100 µM (inactive) | GI50 [15]: > 100 µM (inactive) | GI50 [16]: > 100 µM (inactive) | GI50 [17]: > 100 µM (inactive) | GI50 [18]: > 100 µM (inactive) | GI50 [19]: > 100 µM (inactive) | GI50 [20]: > 100 µM (inactive)
